The target in the test is T1, 5-HT₃ receptor (Rattus norvegicus, UniProt P35563).
T1 construct: from tissue
T1 sequence (P35563 24-483): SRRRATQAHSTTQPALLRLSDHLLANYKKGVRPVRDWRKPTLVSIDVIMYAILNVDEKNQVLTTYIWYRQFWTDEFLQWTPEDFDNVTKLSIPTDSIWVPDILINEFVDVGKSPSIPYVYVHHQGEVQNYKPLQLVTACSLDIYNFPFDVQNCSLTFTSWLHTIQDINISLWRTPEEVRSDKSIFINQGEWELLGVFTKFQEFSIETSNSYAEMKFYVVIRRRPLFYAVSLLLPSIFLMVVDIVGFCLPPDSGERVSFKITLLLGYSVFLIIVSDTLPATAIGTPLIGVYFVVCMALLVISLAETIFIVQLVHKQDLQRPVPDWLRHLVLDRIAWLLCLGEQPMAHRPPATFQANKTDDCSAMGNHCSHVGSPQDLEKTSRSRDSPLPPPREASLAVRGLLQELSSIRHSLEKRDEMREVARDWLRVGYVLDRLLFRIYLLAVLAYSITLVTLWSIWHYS
The test can be described thus: Inhibition of serotonin-induced Von Bezold-Jarisch reflex in rats. In kind it is in vivo. Conditions: 15 minutes prior to 5-HT; for inhibition at 0.01 mg/kg / inhibition at 0.003 mg/kg / inhibition at 0.03 mg/kg / inhibition at 0.001 mg/kg: rat, iv, read-out: Percent Inhibition of Reflex in Rats; for inhibition at 0.03 mg/kg: 0.03 mg/kg I.V.; for inhibition at 0.001 mg/kg: 0.001 mg/kg I.V. The source says:
The compounds of Formula I of this invention are long-acting, orally effective specific 5-HT₃ receptor antagonists, rendering them useful for the treatment of migraine. Because of this mechanism, the compounds of this invention should also be useful for treating emesis, motion sickness, ischemic bowel disease, diabetic gastric paresis, relaxation of the gastro-intestinal tract for instrumentation, other gastro-intestinal pain following surgery, obstetrics or as in abdominal cramps, and for treating CNS disorders such as schizophrenia and anxiety. The ability of these compounds to antagonize the effects of 5-HT was assessed by their inhibition of the Von Bezold-Jarisch reflex induced by 5-HT injected intravenously into the rat (See Paintal, Physiol. Rev., 53, 159 (1973)). When administered by the intravenous route 15 minutes prior to the administration of 5-HT, the compounds of this invention were effective in inhibiting the serotonin-induced Bezold-Jarisch reflex as summarized in Table 1 below: Table 1

For orientation: inhibition means the relative decrease from the control value, in per cent.

With `CN1[C@@H]2CC[C@H]1C[C@@H](NC(=O)c1ccc3c(c1)OC(C)(C)C3)C2` [Example 23, Endo-2,3-dihydro-2,2-dimethyl-N-(8-methyl-8-azabicyclo[3.2.1]oct-3-yl)-6-benzofurancarboxamide (Z)-2-butenedioate], the inhibition at 0.01 mg/kg (0.01 mg/kg I.V.) was -8%.
For `CN1[C@@H]2CC[C@H]1C[C@H](NC(=O)c1cccc3c1OC(C)(C)C3)C2` [Example 39, Exo-2,3-dihydro-2,2-dimethyl-N-(8-methyl-8-azabicyclo[3.2.1]oct-3-yl)-7-benzofurancarboxamide (Z)-2-butenedioate], the inhibition at 0.03 mg/kg turned out to be 82%. Further, the inhibition at 0.003 mg/kg (0.003 mg/kg I.V.) was -2%. Besides, the inhibition at 0.01 mg/kg (0.01 mg/kg I.V.) worked out at 53%.
Consider `COc1c(Cl)cc(C(=O)N[C@H]2C[C@H]3CC[C@@H](C2)N3C)c2c1CC(C)(C)O2` [Example 57, Endo-5-chloro-2,3-dihydro-4-methoxy-2,2-dimethyl-N-(8-methyl-8-azabicyclo[3.2.1]oct-3-yl)-7-benzofurancarboxamide (Z)-2-butenedioate], for which the inhibition at 0.01 mg/kg (0.01 mg/kg I.V.) amounted to 3%.
Same read-out and setting: the value for `COc1cc2c(c(C(=O)N[C@H]3C[C@H]4CC[C@@H](C3)N4C)c1)OC(C)C2` (mixture of isomers) [Example 27, dl-endo-2,3-dihydro-5-methoxy-2-methyl-N-(8-methyl-8-azabicyclo[3.2.1]oct-3-yl)-7-benzofurancarboxamide (Z)-2-butenedioate] was 20%.
Regarding `CN1[C@@H]2CCC[C@H]1C[C@@H](NC(=O)c1cc(Cl)cc3c1OC(C)(C)C3)C2` [Example 54], the inhibition at 0.003 mg/kg (0.003 mg/kg I.V.) amounted to 84%. In addition, the inhibition at 0.01 mg/kg (0.01 mg/kg I.V.) is 94%.
Consider `CN1[C@@H]2CC[C@H]1C[C@@H](OC(=O)c1cccc3c1OC(C)(C)C3)C2` [Example 24, Endo-2,3-dihydro-2,2-dimethyl-7-benzofurancarboxylic acid, 8-methyl-8-azabicyclo[3.2.1]oct-3-yl ester (Z)-2-butenedioate], for which the inhibition at 0.003 mg/kg (0.003 mg/kg I.V.) was determined as 21%. Besides, for the setting “0.01 mg/kg I.V.”, the inhibition at 0.01 mg/kg was found to be 38%.
With `CN1[C@@H]2CC[C@H]1C[C@H](OC(=O)c1cc(Cl)cc3c1OC(C)(C)C3)C2` [Example 26, Exo-2,2-dimethyl-5-chloro-2,3-dihydro-7-benzofurancarboxylic acid, 8-methyl-8-azabicyclo[3.2.1]oct-3-yl ester (Z)-2-butenedioate], for the setting “0.01 mg/kg I.V.”, the inhibition at 0.01 mg/kg amounted to 2%.
On to `CC1Cc2cc(Cl)cc(C(=O)O[C@H]3C[C@H]4CC[C@@H](C3)N4C)c2O1` (mixture of isomers) [Example 34, dl-endo-5-chloro-2,3-dihydro-2-methyl-7-benzofurancarboxylic acid, 8-methyl-8-azabicyclo[3.2.1]oct-3-yl ester (Z)-2-butenedioate], for which the inhibition at 0.001 mg/kg stood at 6%. In addition, the inhibition at 0.003 mg/kg (0.003 mg/kg I.V.) is 51%. In addition, the inhibition at 0.01 mg/kg (0.01 mg/kg I.V.) came out at 69%.
As for `CC1(C)CCc2cccc(C(=O)NC3CN4CCC3CC4)c2O1` (centres unmarked) [Example 53, N-(1-azabicyclo[2.2.2]oct-3-yl)-3,4-dihydro-2,2-dimethyl-2H-1-benzopyran-8-carboxamide (Z)-2-butenedioate], the inhibition at 0.001 mg/kg worked out at 50%. For the same compound, the inhibition at 0.003 mg/kg (0.003 mg/kg I.V.) was found to be 93%.
Take `CN1[C@@H]2CC[C@H]1C[C@@H](NC(=O)c1ccc3c(c1)CC(C)(C)O3)C2` [Example 20, Endo-2,3-dihydro-2,2-dimethyl-N-(8-methyl-8-azabicyclo[3.2.1]oct-3-yl)-5-benzofurancarboxamide (Z)-2-butenedioate]: the inhibition at 0.01 mg/kg (0.01 mg/kg I.V.) is 16%.
As for `CN1[C@@H]2CC[C@H]1C[C@@H](NC(=O)c1cc(Cl)c(N)c3c1OC(C)(C)C3)C2` [Example 56, Endo-2,3-dihydro-4-amino-5-chloro-2,2-dimethyl-N-(8-methyl-8-azabicyclo[3.2.1]oct-3-yl)-7-benzofurancarboxamide (Z)-2-butenedioate], the inhibition at 0.003 mg/kg (0.003 mg/kg I.V.) amounted to 25%. In addition, the inhibition at 0.01 mg/kg (0.01 mg/kg I.V.) worked out at 89%.
For the compound `CN1[C@@H]2CCC[C@H]1C[C@@H](NC(=O)c1cccc3c1OC(C)(C)C3)C2` [Example 55, Endo-2,3-dihydro-2,2-dimethyl-N-(9-methyl-9-azabicyclo[3.3.1]non-3-yl)-7-benzofurancarboxamide (Z)-2-butenedioate], the inhibition at 0.003 mg/kg (0.003 mg/kg I.V.) amounted to 88%.
Turning to `Cc1cc2c(c(C(=O)O[C@H]3C[C@H]4CC[C@@H](C3)N4C)c1)OC(C)(C)C2` [Example 37, Endo-2,3-dihydro-2,2,5-trimethyl-7-benzofurancarboxylic acid, 8-methyl-8-azabicyclo[3.2.1]oct-3-yl ester (Z)-2-butenedioate], where the note is “0.01 mg/kg I.V.”, the inhibition at 0.01 mg/kg was determined as 4%.
Consider `COc1cc2c(c(C(=O)O[C@H]3C[C@H]4CC[C@@H](C3)N4C)c1)OC(C)C2` (mixture of isomers) [Example 28, dl-endo-2-methyl-5-methoxy-2,3-dihydro-7-benzofurancarboxylic acid, 8-methyl-8-azabicyclo[3.2.1]-oct-3-yl ester (Z)-2-butenedioate], for which, for the setting “0.01 mg/kg I.V.”, the inhibition at 0.01 mg/kg stood at 4%.
As for `CC1Cc2cccc(C(=O)N[C@@H]3C[C@H]4CC[C@@H](C3)N4C)c2O1` (mixture of isomers) [Example 38, dl-exo-2,3-dihydro-2-methyl-N-(8-methyl-8-azabicyclo[3.2.1]oct-3-yl)-7-benzofurancarboxamide (Z)-2-butenedioate], the inhibition at 0.03 mg/kg stood at 51%. Besides, for the setting “0.01 mg/kg I.V.”, the inhibition at 0.01 mg/kg was 26%.
As for `COc1ccc(C(=O)N[C@H]2C[C@H]3CC[C@@H](C2)N3C)c2c1CC(C)(C)O2` [Example 52, Endo-2,3-dihydro-4-methoxy-2,2-dimethyl-N-(8-methyl-8-azabicyclo[3.2.1]oct-3-yl)-7-benzofurancarboxamide (Z)-2-butenedioate], where the note is “0.003 mg/kg I.V.”, the inhibition at 0.003 mg/kg is -7%.
Regarding `CN1C2CCC1CC(NC(=O)c1cc(Cl)cc3c1OC(C)(C)C3)C2.O=C(O)/C=C\C(=O)O` (stereo not drawn) [Example 30, Exo-2,2-dimethyl-5-chloro-2,3-dihydro-N-(8-methyl-8-azabicyclo[3.2.1]oct-3-yl)-7-benzofurancarboxamide (Z)-2-butenedioate], the “Percent Inhibition of Reflex in Rats” value (0.003 mg/kg I.V.) is on record as 26% and the “Percent Inhibition of Reflex in Rats” value (0.01 mg/kg I.V.) worked out at 67%.
Turning to `CN1[C@@H]2CC[C@H]1C[C@@H](NC(=O)c1cc(O)cc3c1OC(C)(C)C3)C2` [Example 62, Endo-2,3-dihydro-5-hydroxy-2,2-dimethyl-N-(8-methyl-8-azabicyclo[3.2.1]oct-3-yl)-7-benzofurancarboxamide (Z)-2-butenedioate], the inhibition at 0.01 mg/kg (0.01 mg/kg I.V.) turned out to be 54%.
In the case of `CN1[C@@H]2CC[C@H]1C[C@@H](NC(=O)c1cccc3c1OC(C)(C)CC3)C2` [Example 36, Endo-2,2-dimethyl-N-(8-methyl-8-azabicyclo[3.2.1]oct-3-yl)-8-chromancarboxamide (Z)-2-butenedioate], the inhibition at 0.001 mg/kg came to 4%. Besides, the inhibition at 0.01 mg/kg (0.01 mg/kg I.V.) was 76%.
As for `COc1cc2c(c(C(=O)N[C@H]3C[C@H]4CC[C@@H](C3)N4C)c1)OC(C)(C)C2` [Example 41, Endo-2,3-dihydro-2,2-dimethyl-5-methoxy-N-(8-methyl-8-azabicyclo[3.2.1]oct-3-yl)-7-benzofurancarboxamide (Z)-2-butenedioate], where the note is “0.01 mg/kg I.V.”, the inhibition at 0.01 mg/kg is -1%.
The same measure, in the same setting: the value for `CC1Cc2cc(F)cc(C(=O)O[C@H]3C[C@H]4CC[C@@H](C3)N4C)c2O1` (mixture of isomers) [Example 31, dl-endo-5-fluoro-2,3-dihydro-2-methyl-7-benzofurancarboxylic acid, 8-methyl-8-azabicyclo[3.2.1]oct-3-yl ester (Z)-2-butenedioate] was 32%.
Consider `CN1[C@@H]2CC[C@H]1C[C@@H](NC(=O)c1cc(Cl)cc3c1OC(C)(C)CC3)C2` [Example 61, Endo-2,2-dimethyl-6-chloro-N-(8-methyl-8-azabicyclo[3.2.1]oct-3-yl)-8-chromancarboxamide (Z)-2-butenedioate], for which the inhibition at 0.003 mg/kg (0.003 mg/kg I.V.) worked out at 30%. In addition, the inhibition at 0.01 mg/kg (0.01 mg/kg I.V.) came to 91%.
As to `CN1[C@@H]2CC[C@H]1C[C@@H](NC(=O)c1cccc3c1OC(C)(C)C3)C2` [Example 17, Endo-2,3-dihydro-2,2-dimethyl-N-(8-methyl-8-azabicyclo[3.2.1]oct-3-yl)-7-benzofurancarboxamide (Z)-2-butenedioate], the inhibition at 0.03 mg/kg turned out to be 82%. Besides, the inhibition at 0.003 mg/kg (0.003 mg/kg I.V.) was -2%. For the same compound, for the setting “0.01 mg/kg I.V.”, the inhibition at 0.01 mg/kg was determined as 53%.
In the case of `CC1Cc2cccc(C(=O)O[C@H]3C[C@H]4CC[C@@H](C3)N4C)c2O1` (mixture of isomers) [Example 35, dl-endo-2,3-dihydro-2-methyl-7-benzofurancarboxylic acid, 8-methyl-8-azabicyclo[3.2.1]oct-3-yl ester (Z)-2-butenedioate], the inhibition at 0.01 mg/kg (0.01 mg/kg I.V.) worked out at 31%.

(Values after patent EP0307172A2, “Improvements in or relating to specific 5-HT3 antagonists” (ELI LILLY AND COMPANY, priority 1987, dated 1989).)
